Data on one molecule can be found in patent US20160361445A1, “COMPOUND OR SALT THEREOF AND PHOTOACOUSTIC IMAGING CONTRAST AGENT CONTAINING COMPOUND OR SALT THEREOF” (CANON KABUSHIKI KAISHA, priority 2015, published 2016).

This test is described as follows: Photoacoustic characteristic evaluation (photoacoustic signal measurement). Particulars: pulse laser 790 nm, 12 mJ/cm^2; contrast agent in distilled water. Here is the method: Regarding the measurement of a photoacoustic signal, a sample was irradiated with pulse laser light, a photoacoustic signal from the sample was detected by using a piezoelectric element and was measured by a digital oscilloscope after being amplified by a high-speed preamplifier. Specific conditions were as described below. A titanium sapphire laser (produced by Lotis) was used as a light source. Regarding the conditions, the wavelength was 790 nm, the energy density was 12 mJ/cm^2, the pulse width was 20 nanoseconds, and the pulse repetition was 10 Hz. Model V303 (produced by Panametrics-NDT) was used as an ultrasonic transducer. Regarding the conditions, the center band was 1 MHz, the element size was φ0.5, the measurement distance was 25 mm (non-focus), and the amplification was +30 dB (ultrasonic preamplifier Model 5682 produced by Olympus Corporation). A measurement container was a polystyrene cuvette, the optical path length was 0.1 cm, and the sampling capacitor was about 200 μL. The measurement was performed by using DPO4104 (produced by Tektronix Corporation), where the conditions were as described below, trigger: photoacoustic light was detected by a photodiode data acquisition: average of 128 times (128 pulses)

Structures are written as SMILES.

Take `CC1(C)C(/C=C/C=C/C=C/C=C2\N(CCCCS(=O)(=O)O)c3ccc4ccccc4c3C2(C)C)=[N+](CCCCS(=O)(=O)[O-])c2ccc3ccccc3c21` [Contrast agent (C-1), Indocyanine green]: the “Photoacoustic signal intensity ratio” value is given as 1.0.
